Experimental data as given in patent US12371428B2 (Exelixis, Inc., priority 2019, dated 2025).
Structures can show the parent of a compound that is named as a salt. Where two headings read alike, the source gives them in different places.

Tests used:
[1] = target: Human MER (residues 528-999) (Homo sapiens (Human), UniProt Q12866); experiment: Human Mer kinase assay, HTRF KinEase (Example C-2); assay type: biochemical
Outline: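 HTRF KinEase TK assay with MER 528-999 (1 ng/well) in enzymatic buffer plus 5 mM MgCl2 and 1 mM DTT, biotinylated peptide substrate and ATP at Km (40 μM), 3% DMSO final, 60 min at room temperature. Stopped with EDTA detection mix (SA-XL665, TK antibody-Eu3+), read at 665/620 nm after 60 min; IC50 from 10-point 4-parameter fit, normalized to DMSO and 1 μM reference.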

[2] = target: Human MET (residues 956-1390) (Homo sapiens (Human), UniProt P08581); experiment: Human Met kinase assay, HTRF KinEase (Example D-2); assay type: biochemical; conditions: read-out: c-Met IC50
Outline: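 HTRF KinEase assay on MET residues 956-1390 (0.1 ng/well) in buffer with 5 mM MgCl2, 1 mM DTT and 1 mM MnCl2, with biotinylated peptide substrate, ATP at Km, 10 compound concentrations and 3% DMSO final, run 40 min at room temperature. The […] signal was normalized to DMSO and to 1 μM reference compound, and IC50 came from a 4-parameter logistic fit.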

[3] = target: Mer (phospho-Mer, MERTK-transfected 293A cells) (Homo sapiens (Human), UniProt Q12866); experiment: Mer autophosphorylation ELISA in transient transfected 293A cells (Example H); assay type: cell-based; conditions: cellular activity; Mer autophosphorylation ELISA in transient transfected 293A cells
Outline: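 MERTK-transfected 293A; 8-pt dose, 1 h, serum-free, 0.3% DMSO. Cold lysis with orthovanadate and protease/phosphatase inhibitors. Phospho-Mer by DuoSet IC ELISA vs phospho-Mer standard. IC50: 4-PL fit; DMSO = 100%, reference inhibitor = 0%.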

[4] = target: Human KDR (residues 790-1356) (Homo sapiens (Human), UniProt P35968); experiment: Human KDR kinase assay, HTRF KinEase (Example B-2); assay type: biochemical
Outline: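 Ten compound concentrations (3% DMSO final) were pre-plated, then KDR (790-1356) with biotinylated peptide in Mg/Mn/DTT buffer was added; ATP at Km (4.0 μM) started a 40 min room-temperature reaction. Detection used Eu-TK antibody and SA-XL665 in EDTA buffer; activity normalized to DMSO and reference inhibitor, IC50 by logistic fit.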

[5] = protocol of Example C-2 (other compounds)
[6] = protocol of Example D-2 (other compounds)
[7] = protocol of Example B-2 (other compounds)

Sequence of Mer (phospho-Mer, MERTK-transfected 293A cells) (Q12866 21-999): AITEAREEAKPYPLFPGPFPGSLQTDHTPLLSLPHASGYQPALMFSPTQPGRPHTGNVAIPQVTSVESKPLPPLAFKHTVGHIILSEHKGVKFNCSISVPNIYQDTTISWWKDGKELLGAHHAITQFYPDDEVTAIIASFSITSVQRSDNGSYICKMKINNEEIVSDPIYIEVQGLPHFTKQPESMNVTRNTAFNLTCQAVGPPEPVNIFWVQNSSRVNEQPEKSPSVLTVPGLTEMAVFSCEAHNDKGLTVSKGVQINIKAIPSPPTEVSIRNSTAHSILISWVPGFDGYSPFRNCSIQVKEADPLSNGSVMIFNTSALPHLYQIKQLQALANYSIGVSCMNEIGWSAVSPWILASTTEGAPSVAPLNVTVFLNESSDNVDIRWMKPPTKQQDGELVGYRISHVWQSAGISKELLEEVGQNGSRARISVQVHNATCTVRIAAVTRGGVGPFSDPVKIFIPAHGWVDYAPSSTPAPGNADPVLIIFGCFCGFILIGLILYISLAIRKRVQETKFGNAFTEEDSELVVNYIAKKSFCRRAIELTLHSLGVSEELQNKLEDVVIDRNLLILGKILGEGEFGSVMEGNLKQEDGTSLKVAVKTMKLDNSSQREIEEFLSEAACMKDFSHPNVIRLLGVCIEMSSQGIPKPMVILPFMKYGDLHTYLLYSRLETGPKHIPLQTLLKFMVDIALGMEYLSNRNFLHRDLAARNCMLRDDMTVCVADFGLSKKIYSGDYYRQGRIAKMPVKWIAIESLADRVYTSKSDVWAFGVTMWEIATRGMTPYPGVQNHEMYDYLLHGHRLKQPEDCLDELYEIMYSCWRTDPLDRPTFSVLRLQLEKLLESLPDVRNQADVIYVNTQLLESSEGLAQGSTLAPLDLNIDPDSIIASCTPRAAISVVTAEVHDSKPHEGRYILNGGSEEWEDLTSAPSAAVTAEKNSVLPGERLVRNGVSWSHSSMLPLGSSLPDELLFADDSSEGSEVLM
Sequence of Human MET (residues 956-1390) (P08581 956-1390): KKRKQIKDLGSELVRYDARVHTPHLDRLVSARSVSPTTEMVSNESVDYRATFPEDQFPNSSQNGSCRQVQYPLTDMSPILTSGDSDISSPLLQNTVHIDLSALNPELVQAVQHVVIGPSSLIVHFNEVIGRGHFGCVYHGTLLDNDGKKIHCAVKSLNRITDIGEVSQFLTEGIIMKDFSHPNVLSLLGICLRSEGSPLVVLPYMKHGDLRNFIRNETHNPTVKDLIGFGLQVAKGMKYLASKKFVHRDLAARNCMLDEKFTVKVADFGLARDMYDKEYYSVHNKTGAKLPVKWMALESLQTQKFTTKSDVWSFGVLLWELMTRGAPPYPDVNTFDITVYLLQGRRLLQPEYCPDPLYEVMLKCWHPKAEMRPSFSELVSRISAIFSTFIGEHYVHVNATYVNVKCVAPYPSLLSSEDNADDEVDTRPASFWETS
Sequence of Human MER (residues 528-999) (Q12866 528-999): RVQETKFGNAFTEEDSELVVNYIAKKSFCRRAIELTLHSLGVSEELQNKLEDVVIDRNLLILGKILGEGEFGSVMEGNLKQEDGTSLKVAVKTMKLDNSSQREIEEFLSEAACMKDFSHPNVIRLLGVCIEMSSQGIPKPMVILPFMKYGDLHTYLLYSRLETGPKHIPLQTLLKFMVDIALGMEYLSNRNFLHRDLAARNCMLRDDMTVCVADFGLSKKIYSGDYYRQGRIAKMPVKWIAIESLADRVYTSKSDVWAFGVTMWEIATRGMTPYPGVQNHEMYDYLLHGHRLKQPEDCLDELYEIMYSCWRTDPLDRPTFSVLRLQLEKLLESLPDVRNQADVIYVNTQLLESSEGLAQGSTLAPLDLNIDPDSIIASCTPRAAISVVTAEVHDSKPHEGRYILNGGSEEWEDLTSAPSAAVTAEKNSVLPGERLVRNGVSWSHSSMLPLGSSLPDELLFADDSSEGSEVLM
Sequence of Human KDR (residues 790-1356) (P35968 790-1356): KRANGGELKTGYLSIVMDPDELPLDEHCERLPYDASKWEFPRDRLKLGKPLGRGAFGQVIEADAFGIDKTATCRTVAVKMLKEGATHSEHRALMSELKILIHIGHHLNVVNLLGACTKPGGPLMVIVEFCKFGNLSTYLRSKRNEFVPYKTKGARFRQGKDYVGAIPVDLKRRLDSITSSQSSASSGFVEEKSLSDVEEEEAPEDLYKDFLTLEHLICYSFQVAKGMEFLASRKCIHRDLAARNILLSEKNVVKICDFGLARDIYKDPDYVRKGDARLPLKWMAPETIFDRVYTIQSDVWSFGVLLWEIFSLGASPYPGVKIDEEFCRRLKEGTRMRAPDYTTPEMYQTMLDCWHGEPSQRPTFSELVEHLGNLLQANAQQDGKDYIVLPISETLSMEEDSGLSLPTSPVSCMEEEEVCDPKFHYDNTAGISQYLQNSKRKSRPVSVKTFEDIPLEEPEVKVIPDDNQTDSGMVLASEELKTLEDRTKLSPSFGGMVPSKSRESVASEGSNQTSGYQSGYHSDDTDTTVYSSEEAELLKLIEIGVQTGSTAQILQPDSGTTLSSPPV

Compound	IC50 [1, 5] [µM]	IC50 [2, 6] [µM]	IC50 [3] [µM]	IC50 [4, 7] [µM]	IC50 ([1]; protocol of Example C-2) [µM]	IC50 ([2]; protocol of Example D-2) [µM]	IC50 ([4]; protocol of Example B-2) [µM]
COc1ccc2nccc(Oc3ccc(NC(=O)c4cnc(C)c(-c5ccc(F)cc5)c4O)cc3F)c2n1 [Compound 172, N-[3-Fluoro-4-[(6-methoxy-1,5-naphthyridin-4-yl)oxy]phenyl]-5-(4-fluorophenyl)-4-hydroxy-6-methylpyridine-3-carboxamide]	< 0.1	< 0.1	< 0.1	0.1 to 0.3	–	–	–
COc1cc2nccc(Oc3ccc(NC(=O)c4c(C)nc(C)c(-c5ccc(F)cc5)c4O)cc3)c2nc1OC [Compound 173, N-[4-[(6,7-Dimethoxy-1,5-naphthyridin-4-yl)oxy]phenyl]-5-(4-fluorophenyl)-4-hydroxy-2,6-dimethylpyridine-3-carboxamide]	< 0.1	< 0.1	< 0.1	< 0.1	–	–	–
COC(=O)c1cnc2c(Oc3ccc(NC(=O)c4cnc(C)c(-c5ccc(F)cc5)c4O)cc3F)ccnc2c1 [Compound 138, Methyl 8-[2-fluoro-4-[[5-(4-fluorophenyl)-4-hydroxy-6-methylpyridine-3-carbonyl]amino]phenoxy]-1,5-naphthyridine-3-carboxylate]	0.1 to 0.3	< 0.1	0.1 to 0.3	> 0.3	–	–	–
CNc1nc2c(Oc3ccc(NC(=O)c4cn(C(C)C)c(C)c(-c5ccc(F)cc5)c4=O)cc3F)ccnc2cc1OC [Compound 582, N-[3-Fluoro-4-[[7-methoxy-6-(methylamino)-1,5-naphthyridin-4-yl]oxy]phenyl]-5-(4-fluorophenyl)-6-methyl-4-oxo-1-propan-2-ylpyridine-3-carboxamide]	–	–	< 0.1	–	< 0.1	< 0.1	< 0.1
Cc1nc2c(Oc3ccc(NC(=O)c4cn(C(C)C)c(C)c(-c5ccc(F)cc5)c4=O)cc3)ccnc2cc1-c1cnn(C(F)F)c1 [Compound 612, N-[4-[[7-[1-(Difluoromethyl)pyrazol-4-yl]-6-methyl-1,5-naphthyridin-4-yl]oxy]phenyl]-5-(4-fluorophenyl)-6-methyl-4-oxo-1-propan-2-ylpyridine-3-carboxamide hydrochloride]	–	–	< 0.1	–	< 0.1	< 0.1	> 0.3
Cc1ncc(C(=O)Nc2ccc(Oc3ccnc4cc(C(N)=O)cnc34)c(F)c2)c(O)c1-c1ccc(F)cc1 [Compound 577, 8-[2-Fluoro-4-[[5-(4-fluorophenyl)-4-hydroxy-6-methylpyridine-3-carbonyl]amino]phenoxy]-1,5-naphthyridine-3-carboxamide]	–	–	0.1 to 0.3	–	< 0.1	< 0.1	< 0.1
Cc1nc2c(Oc3ccc(NC(=O)c4cn(C(C)C)c(C)c(-c5ccc(F)cc5)c4=O)cc3)ccnc2cc1-c1cccnc1 [Compound 613, 5-(4-Fluorophenyl)-6-methyl-N-[4-[(6-methyl-7-pyridin-3-yl-1,5-naphthyridin-4-yl)oxy]phenyl]-4-oxo-1-propan-2-ylpyridine-3-carboxamide hydrochloride]	–	–	< 0.1	–	< 0.1	< 0.1	> 0.3
COc1cnc2c(Oc3ccc(NC(=O)c4cncc(-c5ccc(F)cc5)c4O)cc3F)ccnc2c1 [Compound 120, N-[3-Fluoro-4-[(7-methoxy-1,5-naphthyridin-4-yl)oxy]phenyl]-5-(4-fluorophenyl)-4-hydroxypyridine-3-carboxamide]	< 0.1	< 0.1	< 0.1	< 0.1	–	–	–
Cc1nc2c(Oc3ccc(NC(=O)c4cn(C(C)C)c(C)c(-c5ccc(F)cc5)c4=O)cc3F)ccnc2cc1Br [Compound 153, N-[4-[(7-Bromo-6-methyl-1,5-naphthyridin-4-yl)oxy]-3-fluorophenyl]-5-(4-fluorophenyl)-6-methyl-4-oxo-1-propan-2-ylpyridine-3-carboxamide]	< 0.1	< 0.1	< 0.1	> 0.3	–	–	–
COc1cc2nccc(Oc3ccc(NC(=O)c4cn(OC)cc(-c5ccc(F)cc5)c4=O)cc3)c2nc1OC [Compound 127, N-[4-[(6,7-Dimethoxy-1,5-naphthyridin-4-yl)oxy]phenyl]-5-(4-fluorophenyl)-1-methoxy-4-oxopyridine-3-carboxamide]	< 0.1	< 0.1	< 0.1	< 0.1	–	–	–
COc1cc2nccc(Oc3ccc(NC(=O)c4cn(-c5cccnc5)cc(-c5ccc(F)cc5)c4=O)cc3F)c2nc1OC [Compound 125, N-[4-[(6,7-Dimethoxy-1,5-naphthyridin-4-yl)oxy]-3-fluorophenyl]-5-(4-fluorophenyl)-4-oxo-1-pyridin-3-ylpyridine-3-carboxamide]	< 0.1	< 0.1	< 0.1	> 0.3	–	–	–
Cc1nc2c(Oc3ccc(NC(=O)c4cnc(C)c(-c5ccc(F)cc5)c4O)cc3F)ccnc2cc1-c1cccnc1 [Compound 618, N-[3-Fluoro-4-[(6-methyl-7-pyridin-3-yl-1,5-naphthyridin-4-yl)oxy]phenyl]-5-(4-fluorophenyl)-4-hydroxy-6-methylpyridine-3-carboxamide hydrochloride]	–	–	< 0.1	–	< 0.1	< 0.1	0.1 to 0.3
COc1cc2nccc(Oc3ccc(NC(=O)c4cnc(C(C)(C)C)c(-c5ccc(F)cc5)c4O)cc3F)c2nc1OC [Compound 155, 6-tert-Butyl-N-[4-[(6,7-dimethoxy-1,5-naphthyridin-4-yl)oxy]-3-fluorophenyl]-5-(4-fluorophenyl)-4-hydroxypyridine-3-carboxamide]	< 0.1	< 0.1	< 0.1	> 0.3	–	–	–
COc1cnc2c(Oc3ccc(NC(=O)c4cn(C(C)C)cc(-c5ccc(F)cc5)c4=O)cc3F)ccnc2c1 [Compound 123, N-[3-Fluoro-4-[(7-methoxy-1,5-naphthyridin-4-yl)oxy]phenyl]-5-(4-fluorophenyl)-4-oxo-1-propan-2-ylpyridine-3-carboxamide]	< 0.1	< 0.1	< 0.1	> 0.3	–	–	–
COc1cc2nccc(Oc3ccc(NC(=O)c4cn(C(C)C)c(C)c(-c5ccc(F)cc5)c4=O)cc3F)c2nc1Br [Compound 143, N-[4-[(6-Bromo-7-methoxy-1,5-naphthyridin-4-yl)oxy]-3-fluorophenyl]-5-(4-fluorophenyl)-6-methyl-4-oxo-1-propan-2-ylpyridine-3-carboxamide]	< 0.1	< 0.1	< 0.1	> 0.3	–	–	–
COc1cc2nccc(Oc3ccc(NC(=O)c4cn(-c5cnn(C)c5)c(C)c(-c5ccc(F)cc5)c4=O)cc3F)c2nc1OC [Compound 140, N-[4-[(6,7-Dimethoxy-1,5-naphthyridin-4-yl)oxy]-3-fluorophenyl]-5-(4-fluorophenyl)-6-methyl-1-(1-methylpyrazol-4-yl)-4-oxopyridine-3-carboxamide]	< 0.1	< 0.1	< 0.1	> 0.3	–	–	–
CCn1cc(C(=O)Nc2ccc(Oc3ccnc4cc(OC)cnc34)c(F)c2)c(=O)c(-c2ccc(F)cc2)c1C [Compound 164, 1-Ethyl-N-[3-fluoro-4-[(7-methoxy-1,5-naphthyridin-4-yl)oxy]phenyl]-5-(4-fluorophenyl)-6-methyl-4-oxopyridine-3-carboxamide]	< 0.1	< 0.1	< 0.1	> 0.3	–	–	–
COc1nc2c(Oc3ccc(NC(=O)c4cn(C(C)C)c(C)c(-c5ccc(F)cc5)c4=O)cc3F)ccnc2cc1Br [Compound 132, N-[4-[(7-Bromo-6-methoxy-1,5-naphthyridin-4-yl)oxy]-3-fluorophenyl]-5-(4-fluorophenyl)-6-methyl-4-oxo-1-propan-2-ylpyridine-3-carboxamide]	< 0.1	< 0.1	< 0.1	0.1 to 0.3	–	–	–
COc1nc2c(Oc3ccc(NC(=O)c4cnc(C)c(-c5ccc(F)cc5)c4O)cc3F)ccnc2cc1Br [Compound 130, N-[4-[(7-Bromo-6-methoxy-1,5-naphthyridin-4-yl)oxy]-3-fluorophenyl]-5-(4-fluorophenyl)-4-hydroxy-6-methylpyridine-3-carboxamide]	< 0.1	< 0.1	< 0.1	< 0.1	–	–	–
COc1nc2c(Oc3ccc(NC(=O)c4cncc(-c5ccc(F)cc5)c4O)cc3F)ccnc2cc1Br [Compound 129, N-[4-[(7-Bromo-6-methoxy-1,5-naphthyridin-4-yl)oxy]-3-fluorophenyl]-5-(4-fluorophenyl)-4-hydroxypyridine-3-carboxamide]	< 0.1	< 0.1	< 0.1	< 0.1	–	–	–
